Laboratory results from PubChem BioAssay (NCI).
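Cells were grown in 96-well plates and exposed to each compound for 48 hours at five concentrations; endpoints were interpolated linearly between bracketing concentrations, or set to the highest concentration if not reached. Here, GI50 denotes the concentration required for 50% inhibition of growth. At the TGI there is no net growth.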

How the values were obtained:
Test in all cases: inhibition of tumour cell growth, NCI panel, 48 h
[1] = test system: KM12 colon
[2] = test system: K-562 leukemia
[3] = test system: NCI/ADR-RES ovarian
[4] = test system: UACC-62 melanoma
[5] = test system: OVCAR-3 ovarian
[6] = test system: HT29 colon
[7] = test system: COLO 205 colon
[8] = test system: OVCAR-5 ovarian
[9] = test system: HCT-15 colon
[10] = test system: HS 578T breast
[11] = test system: SF-268 CNS
[12] = test system: UACC-257 melanoma
[13] = test system: A549 NSCLC
[14] = test system: SK-MEL-2 melanoma
[15] = test system: SR leukemia
[16] = test system: SNB-75 CNS
[17] = test system: M14 melanoma
[18] = test system: RPMI-8226 leukemia
[19] = test system: SW-620 colon
[20] = test system: MCF7 breast
[21] = test system: NCI-H23 lung
[22] = test system: SF-295 CNS
[23] = test system: UO-31 renal
[24] = test system: HL-60(TB) leukemia
[25] = test system: SF-539 CNS
[26] = test system: HOP-92 NSCLC
[27] = test system: MOLT-4 leukemia
[28] = test system: HOP-62 NSCLC
[29] = test system: CAKI-1 renal
[30] = test system: SK-MEL-28 melanoma
[31] = test system: MDA-MB-231 breast
[32] = test system: MALME-3M melanoma
[33] = test system: OVCAR-4 ovarian
[34] = test system: TK-10 renal
[35] = test system: SK-MEL-5 melanoma
[36] = test system: HCC-2998 colon
[37] = test system: NCI-H226 lung
[38] = test system: T-47D breast
[39] = test system: EKVX NSCLC
[40] = test system: RXF 393 renal
[41] = test system: OVCAR-8 ovarian
[42] = test system: CCRF-CEM leukemia
[43] = test system: NCI-H522 lung
[44] = test system: LOX IMVI melanoma
[45] = test system: NCI-H460 lung
[46] = test system: U251 CNS
[47] = test system: SN12C renal
[48] = test system: HCT-116 colon
[49] = test system: SK-OV-3 ovarian
[50] = test system: 786-0 renal
[51] = test system: DU-145 prostate
[52] = test system: ACHN renal
[53] = test system: BT-549 breast
[54] = test system: SNB-19 CNS
[55] = test system: MDA-MB-435
[56] = test system: IGROV1 ovarian
[57] = test system: PC-3 prostate
[58] = test system: A498 renal

COc1cnc2c(c1)C(=O)c1c-2n(CCCBr)c(=O)c2cc([N+](=O)[O-])ccc12 gave a GI50 [1] of 375 nM, a TGI [1] of 8770 nM and a GI50 [2] of 255 nM. For the same compound, the TGI [2] was over 100000 nM, the GI50 [3] was 187 nM and the TGI [3] was 12400 nM. It also gave a GI50 [4] of 82.1 nM, a TGI [4] of 1480 nM and a GI50 [5] of 248 nM. It also gave a TGI [5] of 1050 nM, a GI50 [6] of 202 nM and a TGI [6] of 23100 nM. The GI50 [7] was 259 nM, the TGI [7] was 2410 nM and the GI50 [8] was 1190 nM. It also gave a TGI [8] of 10200 nM, a GI50 [9] of 350 nM and a TGI [9] of 15300 nM. It also gave a GI50 [10] of 2550 nM, a TGI [10] of 40100 nM and a GI50 [11] of 158 nM. It also gave a TGI [11] of 9300 nM, a GI50 [12] of 597 nM and a TGI [12] of 4390 nM. For the same compound, the GI50 [13] was 347 nM, the TGI [13] was 6850 nM and the GI50 [14] was 2040 nM. The TGI [14] was 6310 nM, the GI50 [15] was 37.8 nM and the TGI [15] was over 100000 nM. For the same compound, the GI50 [16] was 430 nM, the TGI [16] was 13800 nM and the GI50 [17] was 140 nM. It also gave a TGI [17] of 2120 nM, a GI50 [18] of 301 nM and a TGI [18] of 4700 nM. It also gave a GI50 [19] of 60.7 nM, a TGI [19] of 5130 nM and a GI50 [20] of 45.9 nM. The TGI [20] was 1200 nM, the GI50 [21] was 218 nM and the TGI [21] was 4270 nM. The GI50 [22] was 70.9 nM, the TGI [22] was 852 nM and the GI50 [23] was 56.6 nM. For the same compound, the TGI [23] was 1510 nM, the GI50 [24] was 310 nM and the TGI [24] was 53000 nM. It also gave a GI50 [25] of 279 nM, a TGI [25] of 1070 nM and a GI50 [26] of 1770 nM. For the same compound, the TGI [26] was 13700 nM, the GI50 [27] was 52 nM and the TGI [27] was 10200 nM. The GI50 [28] was 57.8 nM, the TGI [28] was 2600 nM and the GI50 [29] was 45.9 nM. For the same compound, the TGI [29] was 3050 nM, the GI50 [30] was 1520 nM and the TGI [30] was 12000 nM. It also gave a GI50 [31] of 2580 nM, a TGI [31] of 31500 nM and a GI50 [32] of 352 nM. The TGI [32] was 2020 nM, the GI50 [33] was 686 nM and the TGI [33] was 9170 nM. For the same compound, the GI50 [34] was 2000 nM, the TGI [34] was 16300 nM and the GI50 [35] was 224 nM. For the same compound, the TGI [35] was 533 nM, the GI50 [36] was 386 nM and the TGI [36] was 10200 nM. It also gave a GI50 [37] of 499 nM, a TGI [37] of 3750 nM and a GI50 [38] of 233 nM. The TGI [38] was 3190 nM, the GI50 [39] was 1270 nM and the TGI [39] was 10700 nM. For the same compound, the GI50 [40] was 364 nM, the TGI [40] was 2430 nM and the GI50 [41] was 364 nM. For the same compound, the TGI [41] was 7210 nM, the GI50 [42] was 57.5 nM and the TGI [42] was 17800 nM. For the same compound, the GI50 [43] was 433 nM, the TGI [43] was 8460 nM and the GI50 [44] was 75 nM. For the same compound, the TGI [44] was 549 nM, the GI50 [45] was 40.7 nM and the TGI [45] was 699 nM. It also gave a GI50 [46] of 101 nM, a TGI [46] of 3980 nM and a GI50 [47] of 269 nM. The TGI [47] was 3480 nM, the GI50 [48] was 84.9 nM and the TGI [48] was 1700 nM. It also gave a GI50 [49] of 312 nM, a TGI [49] of 7740 nM and a GI50 [50] of 223 nM. It also gave a TGI [50] of 716 nM, a GI50 [51] of 200 nM and a TGI [51] of 9090 nM. It also gave a GI50 [52] of 87.8 nM, a TGI [52] of 3140 nM and a GI50 [53] of 519 nM. For the same compound, the TGI [53] was 9890 nM, the GI50 [54] was 282 nM and the TGI [54] was 18700 nM. The GI50 [55] was 474 nM, the TGI [55] was 5040 nM and the GI50 [56] was 163 nM. The TGI [56] was 2350 nM, the GI50 [57] was 314 nM and the TGI [57] was 11700 nM.
COc1ccc2[nH]c(C(O)(Cc3cccnc3)Cc3cccnc3)cc2c1 gave a TGI [1] of over 100000 nM, a TGI [2] of over 100000 nM and a TGI [3] of over 100000 nM. It also gave a TGI [4] of over 100000 nM, a TGI [5] of over 100000 nM and a TGI [6] of over 100000 nM. For the same compound, the TGI [7] was over 100000 nM, the TGI [8] was over 100000 nM and the TGI [9] was over 100000 nM. The TGI [10] was over 100000 nM, the TGI [11] was over 100000 nM and the TGI [12] was over 100000 nM. For the same compound, the TGI [13] was over 100000 nM, the TGI [14] was over 100000 nM and the TGI [15] was over 100000 nM. For the same compound, the TGI [16] was over 100000 nM, the TGI [17] was over 100000 nM and the TGI [18] was over 100000 nM. It also gave a TGI [19] of over 100000 nM, a TGI [20] of over 100000 nM and a TGI [21] of over 100000 nM. The TGI [22] was over 100000 nM, the TGI [23] was over 100000 nM and the TGI [26] was over 100000 nM. It also gave a TGI [58] of over 100000 nM, a TGI [27] of over 100000 nM and a TGI [28] of over 100000 nM. For the same compound, the TGI [29] was over 100000 nM, the TGI [30] was over 100000 nM and the TGI [31] was over 100000 nM. The TGI [32] was over 100000 nM, the TGI [33] was over 100000 nM and the TGI [34] was over 100000 nM. For the same compound, the TGI [35] was over 100000 nM, the TGI [36] was over 100000 nM and the TGI [37] was over 100000 nM. It also gave a TGI [38] of over 100000 nM, a TGI [39] of over 100000 nM and a TGI [40] of over 100000 nM. The TGI [41] was over 100000 nM, the TGI [42] was over 100000 nM and the TGI [45] was over 100000 nM. It also gave a TGI [46] of over 100000 nM, a TGI [47] of over 100000 nM and a TGI [48] of over 100000 nM. For the same compound, the TGI [49] was over 100000 nM, the TGI [50] was over 100000 nM and the TGI [51] was over 100000 nM. For the same compound, the TGI [52] was over 100000 nM, the TGI [53] was over 100000 nM and the TGI [54] was over 100000 nM. The TGI [55] was over 100000 nM, the TGI [56] was over 100000 nM and the TGI [57] was over 100000 nM.
